Measurements published in ChEMBL document CHEMBL1130000, “Studies of pyrrolo[1,2-alpha]benzimidazolequinone DT-diaphorase substrate activity, topoisomerase II inhibition activity, and DNA reductive alkylation” (J Med Chem, 1997).

Assays:
Type in all cases: functional
Rattus norvegicus = species: Rattus norvegicus; test: Maximum velocity was determined for rat liver DT diaphorase substrate activity
Nucleic Acid [1] = test: Compound tested for its selectivity for incorporation into poly(dA) DNA base pairs
Nucleic Acid [2] = test: Compound tested for its selectivity for incorporation into poly(dG) DNA base pairs
Nucleic Acid [3] = test: Compound tested for its selectivity for incorporation into poly(dA-dT) DNA base pairs

| Structure (SMILES) | Vmax (Rattus norvegicus) [nM/s] | Selectivity (Nucleic Acid [1]) [%] | Selectivity (Nucleic Acid [2]) [%] | Selectivity (Nucleic Acid [3]) [%] |
| --- | --- | --- | --- | --- |
| CC(=O)NC1=C(C)C(=O)c2c(nc3n2CC[C@@H]3OC(C)=O)C1=O | 20.4 |  |  |  |
| CC(=O)NC1=C(C)C(=O)c2c(nc3n2CC[C@H]3OC(C)=O)C1=O | 14.6 |  |  |  |
| CC(=O)N[C@H]1CCn2c1nc1c2C(=O)C(C)=C(N2CC2)C1=O | 2.2 | 32.7 | 12.1 | 38 |
| CCCCC1=C(NC(C)=O)C(=O)c2nc3n(c2C1=O)CCC3 | 18.1 |  |  |  |
| CCCCC1=C(NC(C)=O)C(=O)c2nc3n(c2C1=O)CCC3OC(C)=O (centres undefined) | 15.4 |  |  |  |
| COCC(=O)O[C@@H]1CCn2c1nc1c2C(=O)C(C)=C(NC(C)=O)C1=O | 16.7 |  |  |  |
| COCC(=O)O[C@H]1CCn2c1nc1c2C(=O)C(C)=C(NC(C)=O)C1=O | 28.2 |  |  |  |
| CC(=O)NC1=C(C)C(=O)c2c(nc3n2CCC3OC(=O)c2ccccc2)C1=O (racemic) | 27.9 |  |  |  |
| CC(=O)NC1=C(C)C(=O)c2c(nc3n2CCC3OC(C)=O)C1=O (racemic) | 38.6 |  |  |  |
| CC(=O)NC1CCn2c1nc1c2C(=O)C(C)=C(N2CC2)C1=O (racemic) | 8.3 | 41.5 | 8.2 | 28 |
| CC(=O)OC1CCn2c1nc1c2C(=O)C(C)=C(N2CC2)C1=O (racemic) | 66.5 |  |  |  |
| CCCC(=O)OC1CCn2c1nc1c2C(=O)C(C)=C(NC(C)=O)C1=O (racemic) | 42.3 |  |  |  |
| CCCCC1=C(N2CC2)C(=O)c2nc3n(c2C1=O)CCC3OC(C)=O (racemic) | 8.5 |  |  |  |
| COCC(=O)OC1CCn2c1nc1c2C(=O)C(C)=C(NC(C)=O)C1=O (racemic) | 9.8 |  |  |  |
| CC(=O)O[C@H]1CCn2c1nc1c2C(=O)C(C)=C(N2CC2)C1=O (stereo in doubt; (+)) | 83.4 | 5.9 |  |  |
| CC(=O)O[C@H]1CCn2c1nc1c2C(=O)C(C)=C(N2CC2)C1=O (stereo in doubt; (-)) | 62.6 | 8.5 |  |  |
